# From US10987669B2, “Apparatus and method for detection of tumour cells and circulating tumour cells” (MEDCOM ADVANCE, S.A., priority 2016, dated 2021)
# Tests used:
# Type in all cases: cell-based
# [1] = test system: co-cultured MCF7 (Qdot685 labelled) cells with MCF12A (Qdot625 labelled) cells; assay: 2-NBD glucose uptake measurements in co-cultured cells; details: 300 μM 2-NBDG, 5 min, hyperoxic environment, co-culture
# Procedure: To successfully identify different cell types in a cell mixture, previously functionalized Qdot 625 and 685 were used as the intracellular trackers for MCF12A and MCF7 cells, respectively. 50,000 cells/wells of each type were cultured separately onto glass cover slips inside 12-well plates and left growing for 48 h, at 5% CO2 and 37° C. Then, cells were washed with pre-warmed 1×PBS for 1 minute and 100 nM of each Qdot@amino-PEG was added in the cell growth media, and waited for 1 hour. After the incubation, cells were washed 3 times with 1×PBS. MCF7 (Qdot685 labelled) cells were detached from the surface using Trypsin-EDTA solution 0.25% and re-cultured onto MCF12A (Qdot625 labelled) cells. […]
# Co-cultured MCF7 (Qdot685 labelled) cells with MCF12A (Qdot625 labelled) cells were exposed to 300 μM of 2-NBDG for 5 min, under the hyperoxic environment, determined by the previous optimizations. Afterwards, cells were fixed with 4% paraformaldehyde solution in 1×PBS for 20 min, and then washed 6 times with 1×PBS and mounted onto glass slides with Fluoromount G (Southern Biotech), for the fluorescence measurements.
# (§1) Fixed cells were imaged with fluorescence microscopy and then analysed using Image J. Epi-fluorescence microscope NIKON TE2000E equipped with the 465/495 excitation and 515/555 emission filters was used to collect the fluorescence of 2-NBDG. […]
# [2] = test system: MCF7 breast cancer cell line (compared with MCF12A healthy breast cells); assay: 2-NBD glucose uptake measurements on fixed cells; details: for Fluorescence intensity of 2-NBDG, cancer versus healthy cells: 300 μM 2-NBDG
# Procedure: MCF12A, a breast mammary epithelia-derived cell line, and MCF7 breast cancer cell line (American Type Culture Collection, ATCC, Manassas, Va., USA), were routinely cultured in DMEM/F-12 supplemented with 20 ng/mL of human epidermal growth factor, 100 ng/mL of cholera toxin, 0.01 mg/mL of bovine insulin, 500 ng/mL of hydrocortisone 95% and 5% donor horse serum; and in EMEM (Eagle's Minimum Essential Medium) supplemented with 10% fetal bovine serum, 0.01 mg/mL human recombinant insulin, 2 mM of L-glutamine and 1% Penicillin-Streptomycin, respectively. Each cell line was cultured in a humidified atmosphere with 5% CO2 at 37° C.
# To study the general uptake and retention of glucose, cells were exposed to 300 μM of 2-(N-(7-Nitrobenz-2-oxa-1,3-diazol-4-yl)Amino)-2-Deoxyglucose (2-NBDG) for different incubation times: 1, 5, 10, 20, 30, and 60 min. To achieve higher 2-NBDG accumulation inside MCF7 cells, cells were exposed to different conditions based on the concentrations of dissolved oxygen. The effects on oxygen availability were evaluated by exposing cells to the hyperoxic or hypoxic environment, created by bubbling 2-NBDG incubation media for 20 min with oxygen or nitrogen, respectively. Afterwards, cells were fixed with 4% paraformaldehyde solution in 1×PBS, for 20 min, and then washed 6 times with 1×PBS and mounted onto glass slides with Fluoromount G (Southern Biotech), for the fluorescence measurements.
# as §1
# 2-(N-(7-Nitrobenz-2-oxa-1,3-diazol-4-yl)Amino)-2-Deoxyglucose (2-NBDG) is chosen as the model metabolism indicator. […] The concentration of 2-NBDG was determined based on the gain of clear visibility on the fluorescence images. The fluorescence intensity was quantified using Image J. The same thresholds were set for fluorescence images of both healthy and cancer cells to remove the background noises. […]
# [3] = test system: MCF7 and MCF12A cells; assay: On-line detection of cancer and healthy cells in the detection microfluidic chip; details: 150 μM 2-NBDG, 5 min, hyperoxic 1×PBS, cells in flow at 0.025 mL/h
# Source text: A detection chip based on the hydrodynamic focusing technique was constructed to continuously detect hypermetabolic cancer cells by measuring single cell fluorescence. It consisted of three inlets, a main single channel and an outlet (FIG. 8a). All inlet channels converged in a single one of 75 μm-width, which was widen to 600 μm (detection region). The conformation of the inlet channels ensures the focus of cells into a line, which can be further detected one by one. Depth of the whole microfluidic chip was 75 μm.
# For the on-line detection of cancer and healthy cells, MCF12A and MCF7 cells were separately detached from culture flasks, centrifuged at 1,300 rpm for 5 min and resuspended in 1 mL of 1×PBS under hyperoxic conditions. As mentioned above, hyperoxia was achieved by bubbling oxygen into the PBS solution for 20 min. 2-NBDG was then added to achieve 150 μM as the final concentration and incubated with suspended cells for 5 min, as the optimal condition. Afterwards, incubation was stopped by adding 2-fold volume of pre-cooled 1×PBS and non-uptaken 2-NBDG was removed by centrifuging cells at 1,300 rpm for 5 min and suspending in 1×PBS. […] An epi-fluorescence microscope was used to collect the fluorescence of the 2-NBDG uptaken by single cells (both, MCF12A and MCF7). Data was analyzed with Image J software.
structure (smiles),measurement,setting,value
"O=[N+]([O-])c1ccc(N[C@H]2C(O)O[C@H](CO)[C@@H](O)[C@@H]2O)c2nonc12 (some centres unmarked) [2-NBDG, 2-(N-(7-Nitrobenz-2-oxa-1,3-diazol-4-yl)Amino)-2-Deoxyglucose]","Fluorescence intensity of 2-NBDG, cancer cell versus surrounded healthy cells",[1],greater fluorescence intensity
same,"Fluorescence intensity of 2-NBDG, cancer versus healthy cells","[2]; 5 min incubation, MCF7 vs MCF12A cultured separately",higher fluorescence compared to healthy cells
same,"Fluorescence intensity of 2-NBDG, cancer versus healthy cells","[2]; incubation longer than 5 min (up to 60 min), MCF7 vs MCF12A",fluorescence from healthy cells overtakes the cancer cells
same,Fluorescence intensity gap between cancer and healthy cells,"[2]; 5 min incubation, hyperoxia compared to control and hypoxia environments",further enlarged
same,"Single cell fluorescence intensity of 2-NBDG, cancer versus healthy cells",[3],higher fluorescence intensity compared to the healthy ones
